Results from patent publication US5688767A, “Treatment of endotoxin-associated disorders with cationic peptides” (priority 1996, dated 1997).
≈ marks a conversion by molar mass, not a printed value. Where “and” joins values, the source holds several entries; their conditions need not be identical. Equal values may be shown once.

Key:
[1] = test system: Acinetobacter calcoaceticus 8193; assay: MIC against Gram-negative bacteria; type: cell-based
Excerpt: (§1) Bacteria included the Bort strain of E. coli (Bortolussi, et al., Inf. Immun., 25:293, 1979) that was originally derived from a case of neonatal meningitis, and which is therefore considered a relevant pathogenic strain to study, and the 0111:B4 strain of E. coli (kindly provided by Dr. D. Morrison) which is a standard source of endotoxin. (Kelly, et al., Inf. Immun., 59:4491, 1991). In addition, P. aeruginosa PA01 strain H103, P. aeruginosa M2, P. aeruginosa K799, Eschericha coli UB 1005, Enterobacter cloacae 218S, Salmonella typhimurium MS7953s, Klebsiella pneumoniae ATCC 13883, Xanthomonas maltophilia ATCC 13637, and Acinetobacter calcoacetious 8193 were employed. LPS was obtained from E. coli Bort by the technique of Westphal and Jann, (Westphal, et al., Acad. Press, Inc. NY., 5:83) and from P. aeruginosa H103 by the method of Darveau and Hancock, (Darveau, et al., J. Bacteriol, 155:831, […]). E. coli 0111:B4 LPS was purchased from Sigma.

[2] = test system: Klebsiella pneumoniae ATCC 13883; assay: MIC against Gram-negative bacteria; type: cell-based
Excerpt: as §1

[3] = test system: Xanthomonas maltophilia ATCC 13637; assay: MIC against Gram-negative bacteria; type: cell-based
Excerpt: as §1

[4] = test system: P. aeruginosa H309 or E. cloacae 218R1; assay: Lysozyme lysis assay (outer membrane permeabilization); type: cell-based, Pseudomonas aeruginosa; Enterobacter cloacae; conditions: 50 μg/ml lysozyme, varying concentrations of compound
Description: Membrane permeabilization by polycationic compounds was measured in two different assays. The first assay measured membrane disruption by the ability of lysozyme to reach the periplasm and cause cell lysis. […] The uptake of lysozyme into whole cells due to membrane permeabilization by various compounds was previously described in Hancock, et al., Antimicrobial Agents and Chemo., 19:777, 1981. Overnight cultures of P. aeruginosa H309 or E. cloacae 218R1 grown in LB-S were diluted 1 in 50 in fresh medium and grown to an OD600 =0.5-0.6. The cells were harvested in a Silencer H-103N clinical centrifuge at 1800 g for 10 min, washed once with one volume of assay buffer (5 mM HEPES pH 7.2, 5 mM KCN), and resuspended in the same buffer to an OD600 of 0.5. Assays consisted of 600 μl of cells with 50 μg/ml of chicken egg white lysozyme and varying concentrations of cationic compounds. Cell lysis was measured as a decrease in the OD600 in a Perkin-Elmer dual beam spectrophotometer. Parallel experiments performed without lysozyme enabled the measurement of the lytic activity of the compounds themselves. To test whether or not permeability to lysozyme could be inhibited by divalent cations, various concentrations of MgCl2 were added to the assay after the addition of lysozyme and before the addition of the test compound.

[5] = test system: TNF induced by viable bacteria in RAW 264.7 cells; assay: TNF induction in RAW 264.7 cells by intact bacteria / secreted LPS-protein complexes; type: cell-based, murine; conditions: for Unit of TNF induced / Unit of TNF induced (% of control): 20 μg of peptide
Description: After an overnight incubation, the media was aspirated from all the wells. 100 μl of Lipopolysaccharide (LPS) was added at 100 ng/100 μl. CEME or CEMA was added at the desired concentration/100 μl to specified wells. […] The plates were then incubated for six hours at 37° C., 5% CO2. The supernatant was then removed from the wells and stored overnight at 4° C. For those wells in which whole bacteria were added directly to the wells, the supernatant was centrifuged in 0.2 μm filter eppendorf tubes for 5 minutes.
In intact cell induction experiments, 10^6 E. coli Bort cells induced 11,967-14,805 Units of TNF per ml in RAW cells.
To examine effects on whole bacterium induction of TNF, bacteria, grown in Luria broth overnight (approximately 1×10^8 /ml) and diluted to […] organisms per ml, and RAW 264.7 cells were each added to separate compartments of a transwell diffusion chamber, which contained a 0.2 μm membrane filter separating the two compartments. Peptides were added, when appropriate, to the bacterium-containing compartment at a final concentration of 20 μg/ml. TNF levels were measured after 6 hours of incubation at 37° C. in 5% CO2. All assays were performed three times with similar results.
TNF was measured in cell culture supernatants and mouse serum on the basis of cytoxicity for L929 fibroblast cell. […] TNF activity was expressed in units as the reciprocal of the dilution of TNF that caused 50% cytotoxicity of L929 cells, as computed using the ELISA+program (Meddata, Inc., New York, N.Y.). In our hands one unit of TNF corresponded to 62.5 pg/ml of recombinant murine TNF (Genzyme Corp.).
In man and animal infections, LPS is probably not released as a purified molecule, but rather in association with other bacterial cell components. To mimic this situation, a model system was employed in which the LPS-protein complexes that are naturally released from bacteria were used as a stimulus to induce TNF production in RAW 264.7 cells. Viable cells of E. coli Bort and 0111:B4 or P. aeruginosa H103 were incubated in a transwell filter unit in which a 0.2 μm membrane filter separated the intact bacteria from the compartment containing the RAW 264.7 cells. […] Addition of 20 μg/ml of peptide to 10^5, 10^6, and 10^7 viable to E. coli 0111:B4 (Table 11) and Bort cells reduced the TNF levels by 90%-96%.

[6] = 10^5 viable E. coli 0111:B4 cells
[7] = 10^6 viable E. coli 0111:B4 cells
[8] = 10^7 viable E. coli 0111:B4 cells

CC[C@H](C)[C@H](NC(=O)CNC(=O)[C@@H](NC(=O)[C@H](CCCCN)NC(=O)[C@H](CCCCN)NC(=O)[C@H](Cc1ccccc1)NC(=O)[C@H](CC(C)C)NC(=O)[C@H](CCCCN)NC(=O)[C@H](Cc1c[nH]c2ccccc12)NC(=O)[C@@H](N)CCCCN)[C@@H](C)CC)C(=O)NCC(=O)N[C@@H](C)C(=O)N[C@H](C(=O)N[C@@H](CC(C)C)C(=O)N[C@@H](CCCCN)C(=O)N[C@H](C(=O)N[C@@H](CC(C)C)C(=O)N[C@H](C(=O)N[C@H](C(=O)NCC(=O)N[C@@H](CC(C)C)C(=O)N1CCC[C@H]1C(=O)N[C@@H](C)C(=O)N[C@@H](CC(C)C)C(=O)N[C@@H](CCCCN)C(=O)N[C@@H](CC(C)C)C(=O)N[C@H](C(=O)N[C@@H](CCCCN)C(=O)O)[C@@H](C)O)[C@@H](C)O)[C@@H](C)O)C(C)C)C(C)C [CEMA]
MIC [1]: 1 µg/mL (≈ 0.326 µM) | MIC [2]: 12 µg/mL (≈ 3.91 µM) | MIC [3]: 12 µg/mL (≈ 3.91 µM) | permeabilization of outer membrane to lysozyme [4]: stronger permeabilizer for lysozyme than polymyxin B | reduction in TNF levels ([5]; 20 μg of CEMA, 10^6 E. coli Bort cells, two independent experiments): 96% and 97% | reduction of TNF induction ([5]; 20 μg/ml CEMA, 10^6 viable P. aeruginosa): 96% | Unit of TNF induced [5, 6]: 552 ± 61 units/ml | Unit of TNF induced (% of control) [5, 6]: 4.5% | Unit of TNF induced [5, 7]: 1892 ± 1370 units/ml | Unit of TNF induced (% of control) [5, 7]: 6.0% | Unit of TNF induced [5, 8]: 4126 ± 3890 units/ml | Unit of TNF induced (% of control) [5, 8]: 8.5%
